Laboratory results: PubChem BioAssay AID1259332 (Broad Institute, 2017)
The source made the active and inactive calls. No rule for the calls is given here. Starred links: 1 amine or outer side, 2 acyl side, 3 side chain; linkers in the order of their positions; H or OH if unused. Positions of bridges follow the written chain, without caps; N, C: chain ends. Non-standard residues stand in square brackets, D forms with d. Residues, ends and D or L forms follow the SMILES beside them. Chains are numbered I, II in the order given. Actinocin(9to1) = Cc1c2oc3c(C)ccc(C(=O)[*:1])c3nc-2c(C(=O)[*:2])c(N)c1=O; NMeV = CN[CH](C(=O)O)C(C)C; Sar = CNCC(=O)O

system: B cell line, CD40 signaling inhibition reporter; test: CD40 pathway inhibition in B cells – B cell lineage, dose response (AID 1259332);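 also: cells stimulated with CD40 ligand tCD40L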

Row | SMILES | AC50
1 | O=C(C1CC1)N1C[C@@H]2N[C@H](C1)[C@@H]2c1ccc(-c2ccncc2)cc1 | 5.72 µM
2 | C[C@H]1CN([C@@H](C)CO)C(=O)Cc2cc(NC(=O)Cc3cn(C)c4ccccc34)ccc2O[C@H]1CN(C)Cc1ccc(C(F)(F)F)cc1 | > 20 µM (inactive)
3 | CC(=NNc1ccc2ccccc2n1)c1ccccc1O | 2.94 µM
4 | C[C@@H]1CN([C@@H](C)CO)C(=O)c2c(c3ccccc3n2C)-c2ccccc2CO[C@H]1CN(C)Cc1cccc(C(F)(F)F)c1 | 10.7 µM
5 | COC(=O)C12OCC34C(CC5C(C)=C(O)C(=O)CC5(C)C3C(O)C1O)OC(=O)C(OC(=O)C=C(C)C)C24 (stereo not given) | 0.479 µM
6 | C[C@@H]1CN([C@@H](C)CO)C(=O)c2c(c3ccccc3n2C)-c2ccccc2CO[C@H]1CN(C)C(=O)Nc1ccccc1C(F)(F)F | 9.28 µM
7 | C[C@@H]1CCCCO[C@H](CN(C)Cc2ccc(C(F)(F)F)cc2)[C@@H](C)CN([C@@H](C)CO)C(=O)c2cc(NC(=O)Nc3cccc4ccccc34)ccc2O1 | > 20 µM (inactive)
8 | N#C[C@H]1[C@H](c2ccc(C#Cc3ccccc3F)cc2)[C@@H](CO)N1C(=O)c1cccnc1 | 2.93 µM
9 | C[C@H](CO)N1C[C@H](C)[C@H](CN(C)C(=O)C2CCOCC2)Oc2ncc(C#CCc3ccccc3)cc2C1=O | 9.51 µM
10 | C[C@@H]1C[C@@H]([C@H](O)CC2CC(=O)NC(=O)C2)C(=O)[C@@H](C)C1 | 0.393 µM
11 | N#CC(C#N)=NNc1ccc(OC(F)(F)F)cc1 | 3.97 µM
12 | CC1CC(C)(C)Nc2ccc(OC(=O)c3ccco3)cc21 (stereo not given) | 3.23 µM
13 | CC=Cc1cc2c(c(=O)o1)C(=O)C(O)C(C)O2 (stereo not given) | > 20 µM (inactive)
14 | CNc1c2cccc(C)c2nc2c(C(=O)NCCN(C)C)cccc12 | 0.266 µM
15 | Cn1cnc(S(=O)(=O)N2C[C@@H]3N[C@H](C2)C3c2ccc(-c3ccccc3F)cc2)c1 (stereo not given in full) | 11 µM
16 | Cc1ccc(S(=O)(=O)N[C@@H](Cc2ccccc2)C(=O)CCl)cc1 | 2.99 µM
17 | CCC(=O)NC(c1ccccc1OC)c1ccc2cccnc2c1O (stereo not given) | 8.63 µM
18 | CCS(=O)(=O)N1[C@H](CO)[C@@H](c2ccc(C#Cc3ccccc3F)cc2)[C@@H]1C#N | 4.12 µM
19 | Clc1ccc(C(Cn2ccnc2)OCc2ccsc2Cl)c(Cl)c1 (stereo not given) | 6.04 µM
20 | O=C(C1CC1)N1C[C@@H]2N[C@H](C1)C2c1ccc(-c2cccc(F)c2)cc1 (stereo not given in full) | 6.91 µM

Row | SMILES | AC50
21 | CC(=O)NCCCC(=O)NC(CCC(=O)OCc1ccccc1)C(=O)OCc1ccccc1 (stereo not given) | > 20 µM (inactive)
22 | CC12CCC3C(CCC4(O)CC(O)CCC34C=NO)C1(O)CCC2C1=COC(=O)C1 (stereo not given) | 0.586 µM
23 | Cc1noc(C)c1S(=O)(=O)Nc1ccc2c(c1)C(=O)N([C@@H](C)CO)C[C@@H](C)[C@@H](CN(C)C(=O)Nc1cccc3ccccc13)OCCCC[C@H](C)O2 | 1.52 µM
24 | COc1ccc(S(=O)(=O)Nc2ccc3c(c2)C(=O)N([C@@H](C)CO)C[C@H](C)[C@@H](CN(C)Cc2ccc(C(F)(F)F)cc2)OCCCC[C@@H](C)O3)cc1 | 7.3 µM
25 | O=C(COC(=O)c1ccccc1C(=O)c1ccc(Cl)c([N+](=O)[O-])c1)NC1CC1 | 1.62 µM
26 | CC1=CC2OC3CC4OC(=O)C=CC=CC(C(C)O)OCC(O)C5(C)OC5C(=O)OCC2(CC1O)C4(C)C31CO1 (stereo not given) | 0.0375 µM
27 | CC1CNCCN1S(=O)(=O)c1cccc2cnccc12 (stereo not given) | 9.01 µM
28 | COCC(=O)N1[C@H](C#N)[C@H](c2ccc(C#Cc3ccccc3F)cc2)[C@H]1CO | 0.856 µM
29 | N#C[C@@H]1[C@H](c2ccc(C#Cc3ccccc3F)cc2)[C@@H](CO)N1C(=O)C1CC1 | 1.59 µM
30 | O=C1C=CC(=O)c2c(O)c(N3CCN(CCOCCO)CC3)c(Br)c(O)c21 | 1.91 µM
31 | C[C@@H]1CN([C@H](C)CO)C(=O)c2c(c3ccccc3n2C)-c2ccccc2CO[C@H]1CN(C)C(=O)Nc1cccc(Cl)c1Cl | 7.74 µM
32 | O=C(COc1cccnc1[N+](=O)[O-])c1ccc(Cl)s1 | 3.2 µM
33 | C[C@@H]1CN([C@@H](C)CO)C(=O)Cc2cc(NS(=O)(=O)c3ccc(F)cc3)ccc2O[C@H]1CN(C)Cc1ccc(C(F)(F)F)cc1 | 3.75 µM
34 | COc1ccc2c3c(n(C)c2c1)[C@H](CO)N(C(=O)Nc1ccc(F)cc1)CC31CCN(C(=O)Nc2ccc(F)cc2F)CC1 | > 7 µM (inactive)
35 | CCC(=O)O[C@]1(C(=O)CCl)[C@@H](C)C[C@H]2[C@@H]3CCC4=CC(=O)C=C[C@]4(C)[C@@]3(F)[C@@H](O)C[C@@]21C | > 20 µM (inactive)
36 | Cc1c2oc3c(C)ccc(C(=O)OC(C)C4NC(=O)C(C(C)C)N(C)C(=O)CN(C)C(=O)C5CCCN5C(=O)C(C(C)C)NC4=O)c3nc-2c(C(=O)OC(C)C2NC(=O)C(C(C)C)N(C)C(=O)CN(C)C(=O)C3CCCN3C(=O)C(C(C)C)NC2=O)c(N)c1=O (stereo not given) (I: cyclo([Sar][NMeV]TVP) / II: cyclo([Sar][NMeV]TVP); linker I:3-II:3 via Actinocin(9to1); configuration not given here) | 0.0309 µM
37 | O=C1CCCCC1Sc1nnc(-c2ccc3c(c2)OCO3)o1 (stereo not given) | 0.951 µM
38 | C[C@@H]1O[C@@H](O[C@H]2C[C@@H](O)[C@]3(CO)[C@H]4[C@H](O)C[C@]5(C)[C@@H](C6COC(=O)C6)CC[C@]5(O)[C@@H]4CC[C@]3(O)C2)[C@H](O)[C@H](O)[C@H]1O (stereo not given in full) | 2.55 µM
39 | COc1ccc(CC2C(=O)NC(C)C(=O)N(C)C3Cc4ccc(cc4)Oc4cc(ccc4O)CC(C(=O)NC(C)C(=O)NC(C)C(=O)N2C)N(C)C3=O)cc1 (stereo not given) | 0.00631 µM
40 | COc1cc(C(=O)CCN2CCC(c3ccccc3)C2)cc(OC)c1OC (stereo not given) | 5.51 µM
